Assay results reported in patent publication US10322132B2, “Prevention or treatment of uratic or gouty diseases” (SHANTON PHARMA CO., LTD., priority 2015, dated 2019).

Legend:
[1] = Pharmacokinetics experiment in cynomolgus monkeys, intravenous; assay type: in vivo, cynomolgus monkeys (Macaca fascicularis); details: 5 mg/kg, Mean ± SD, n = 3
Experimental: Three non-naïve cynomolgus monkeys were administered with test compounds A, B and D at a dose of 5 mg/kg by intravenous injection and with test compound C at a dose of 3 mg/kg by intravenous injection, with one compound being tested at a time. Blood was collected from the vein before administration and 1 h, 3 h, 6 h and 24 h after administration, and plasma was isolated. The plasma was analyzed by a 4000 Q Trap LC-MS/MS instrument. The concentrations of the test samples were output by Analyst 1.6.1 from AB Company. The parameters ( ) such as the mean, standard deviation, and coefficient of variation were calculated using Microsoft Excel, wherein the values directly output by Analyst 1.6.1 requires no calculation. PK parameters were calculated using Pharsight Phoenix 6.2 software (NCA model).

[2] = system: MSU-induced gouty arthritis; test: Pain value in rats with gouty arthritis (electronic Von Frey pain threshold detector); assay type: in vivo, Male Wistar rats; details: for Pain value: Example 5, 15 mg/kg subcutaneous, left foot, Von Frey; for effect on pain values in the test rats (in words): Example 5, compared with the model group
Experimental: The rats with gouty arthritis were placed in a metabolic cage, and the palm center of the left foot of each rat was irritated with an electronic Von Frey pain threshold detector. The maximum stress value was recorded when each rat withdrew its foot, and the value was the pain value of that rat.

serum uric acid = test: Uric acid-lowering experiment in cynomolgus monkeys; assay type: in vivo; set-up: Reduction rate of serum uric acid: concentration or dose not given beside the values; details: for effect on serum uric acid levels in the test monkeys (in words): compared to the levels measured before administration; for Reduction rate of serum uric acid / Content of serum uric acid: intravenous
Experimental: The experiment was done by reference to Komoriya K, Osada Y, Hasegawa M, Horiuchi H, Kondo S, Couch R C, Griffin T B. Hypouricemic effect of allopurinol and the novel xanthine oxidase inhibitor TEI-6720 in chimpanzees. Eur J Pharmacol. 1993 Dec. 21; 250(3): 455-60.
Each compound was tested in three non-naïve cynomolgus monkeys (1 #, 2 # and 3 #), wherein the monkeys were administered with test samples by intravenous injection. Blood was collected from the vein before administration and 1 h, 3 h, 6 h and 24 h after administration. The blood was left still at room temperature. The serum was collected by centrifugation. The content of uric acid in serum was measured. Reduction rate of serum uric acid=(average uric acid content before administration−average uric acid content after administration)/average uric acid content before administration*100%.

[3] = biological target: T1, human urate transporter 1 (hURAT1) (Homo sapiens, UniProt Q96S37); test: Uptake of 14C-labeled uric acid in hURAT1 transfected cells; assay type: cell-based; details: 14C uric acid uptake, hURAT1-transfected HEK-293T cells, 5 min at 37° C.; read-out: IC50 (μM), inhibition of hURAT1 activity
T1 construct: expressed in transfected cells; host or cells: HEK-293T
T1 sequence (Q96S37 1-553): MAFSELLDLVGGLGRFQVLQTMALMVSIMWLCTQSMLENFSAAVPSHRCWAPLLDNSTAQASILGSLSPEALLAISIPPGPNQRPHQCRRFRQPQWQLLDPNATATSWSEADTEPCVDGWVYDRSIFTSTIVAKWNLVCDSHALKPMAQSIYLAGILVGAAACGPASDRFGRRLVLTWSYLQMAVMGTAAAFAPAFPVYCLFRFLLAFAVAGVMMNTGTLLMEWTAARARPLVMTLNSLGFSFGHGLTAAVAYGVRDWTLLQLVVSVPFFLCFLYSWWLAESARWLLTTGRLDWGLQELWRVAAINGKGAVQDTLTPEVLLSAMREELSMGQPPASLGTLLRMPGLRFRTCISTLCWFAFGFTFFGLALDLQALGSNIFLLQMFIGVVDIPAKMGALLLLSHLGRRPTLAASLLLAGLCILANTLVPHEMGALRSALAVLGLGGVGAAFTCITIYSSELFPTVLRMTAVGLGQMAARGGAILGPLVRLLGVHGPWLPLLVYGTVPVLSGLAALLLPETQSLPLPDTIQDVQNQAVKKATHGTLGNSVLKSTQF
Experimental: The compounds were prepared into the stock solutions (5 mM) with dimethyl sulfoxide (DMSO). This experiment involved 8 concentrations in total. The final concentrations were 5000 nM, 1250 nM, 312.5 nM, 78.1 nM, 19.5 nM, 4.9 nM, 1.2 nM and 0.3 nM, respectively.
Preparation of buffers: chlorine-free HBSS buffer (125 mM sodium gluconate, 4.8 mM potassium gluconate, 1.3 mM calcium gluconate, 1.2 mM KH2PO4, 1.2 mM MgSO4, 5.6 mM glucose, 25 mM 4-hydroxyethylpiperazine ethanesulfonic acid (HEPES) (pH 7.4)); lysis buffer (100 mM NaOH)
Transfected cells stably expressing human urate transporter 1 (hURAT1) were obtained by: placing human embryonic kidney cells (HEK-293T) in a cell culture plate containing complete medium, incubating the cells for 24 h at 37° C. in 5% CO2, rinsing the cells with phosphate buffered saline (PBS) followed by trypsin digestion to prepare a suspension containing single cells; placing 8×10^6 cells a cell culture plate, adding dropwise TransIT-293 Reagent:DNA complexes (1.5 ml of Opti-MEM I Reduced-Serum Medium, 15 g of plasmid DNA, and 45 μL of TransIT-293 Reagent were mixed uniformly and then incubated at room temperature for 30 min) to different areas of the cell culture plate, gently shaking the cell culture plate to homogeneously distribute the TransIT-293 Reagent:DNA complexes, and incubating the cells for 48 h at 37° C. in 5% CO2.
Uptake of ^14C-labeled uric acid in hURAT1 transfected cells: (1) hURAT1-transfected cells were placed in a Poly-D-lysine 96-well microplate at a cell density of 6×10^4/well, and left still overnight at 37° C. in 5% CO2; (2) after the cells were placed in the Poly-D-lysine 96-well microplate for 12 h, the cells were washed for 3 times with 200 μl of pre-heated chlorine-free HBSS buffer per well, and the washing solution in the microplate was removed; (3) 50 μl of uric acid-containing [8-14C] […]

[4] = system: MSU-induced gouty arthritis; test: MSU-induced gouty arthritis, toe volume; assay type: in vivo, Male Wistar rats; details: for Inhibition of toe volume change (%) / Toe volume change: 9 h after MSU; for Inhibition of toe volume change (%): vs model group; for effect on increase of the toe volumes in the test rats (in words): compared with the model group
Experimental: The experiment was done by reference to Hsin-Pai Lee, Shi-Ying Huang, Yen-You Lin. Soft Coral-Derived Lemnalol Alleviates Monosodium Urate-Induced Gouty Arthritis in Rats by Inhibiting Leukocyte Infiltration and iNOS, COX-2 and c-Fos Protein Expression. […] 2013, 11, 99-113.
One gram of uric acid was weighed, introduced into 200 mL of boiling water and heated. Then, NaOH (2 mol/L) was added until pH reached 9. The solution became clear, and was cooled at room temperature and then left still overnight. MSU was obtained after filtration, which was dried at 60° C. for 24 h and then sterilized at a high temperature of 180° C.
(§1) The toe volumes of the rats were measured one day prior to the experiment. The rats were administered with the solvent by subcutaneous injection in the model group at a dose of 5 mL/kg, while the rats were administered with test samples by subcutaneous injection in administration groups at a dose of 5 mg/kg. Rats were anesthetized immediately after administration and were injected with 0.09 mL of MSU suspension into the joint cavity of the left ankle. The volume of the left toe was measured in rats 9 h after the injection of MSU into the ankle joint cavity.
as §1, with “dose of 15 mL/kg, while” for “dose of 5 mL/kg, while”, “dose of 15 mg/kg or 10 mg/kg. Rats” for “dose of 5 mg/kg. Rats”
The toe volumes of rats were measured one day prior to the experiment. The rats were administered with the solvent by subcutaneous injection in the model group at a dose of 15 mL/kg, while the rats were administered with the test sample by subcutaneous injection in administration group at a dose of 15 mg/kg. Rats were anesthetized immediately after administration and were injected with 0.09 mL of MSU suspension into the joint cavity of the left ankle. The volume of the left toe in each rat was measured 9 h after the injection of MSU into the ankle joint cavity.

[5] = 3 h after administration vs before administration, animal 1#
[6] = 3 h after administration vs before administration, animal 2#
[7] = 3 h after administration vs before administration, mean
[8] = 3 h after administration, animal 1#
[9] = 3 h after administration, animal 2#
[10] = Example 5, 15 mg/kg or 10 mg/kg
[11] = Example 5, 15 mg/kg subcutaneous

Row | Compound | t1/2z [1] [h] | Pain value [2] [g] | effect on pain values in the test rats (in words) [2] | effect on serum uric acid levels in the test monkeys (in words) (serum uric acid) | Reduction rate of serum uric acid (serum uric acid; [5]) [%] | Reduction rate of serum uric acid (serum uric acid; [6]) [%] | Reduction rate of serum uric acid (serum uric acid; [7]) [%] | Content of serum uric acid (serum uric acid; [8]) [µmol/L] | Content of serum uric acid (serum uric acid; [9]) [µmol/L] | Content of serum uric acid (serum uric acid; 3 h after administration, mean) [µmol/L] | IC50 [3] [µM] | effect on increase of the toe volumes in the test rats (in words) [4, 10] | Toe volume change [4, 11] [mL] | Inhibition of toe volume change (%) [4, 11] [%] | also measured
1 | CCCCCn1c(=O)[nH]c(=O)c2[nH]c(Cl)nc21 [Compound A, 8-chloro-3-pentyl-3,7-dihydro-1H-purine-2,6-dione] | 14.55 ± 6.69 | 47.51 | significantly increase | significantly reduce | 18.5 | 38.0 | 22.8 | 61.9 | 57.0 | 59.6 | 2.52 | significantly inhibit | 0.264 | 34.7 | Reduction rate of serum uric acid (serum uric acid; 3 h after administration vs before administration, animal 3#): 5.98%; Content of serum uric acid (serum uric acid; 3 h after administration, animal 3#): 59.9 µmol/L; Reduction rate of serum uric acid (serum uric acid; 6 h after administration vs before administration, animal 1#): 10.9%; Reduction rate of serum uric acid (serum uric acid; 6 h after administration vs before administration, animal 2#): 48.2%; Reduction rate of serum uric acid (serum uric acid; 6 h after administration vs before administration, animal 3#): 20.9%; Reduction rate of serum uric acid (serum uric acid; 6 h after administration vs before administration, mean): 28.5%; Content of serum uric acid (serum uric acid; 6 h after administration, animal 1#): 67.6 µmol/L; Content of serum uric acid (serum uric acid; 6 h after administration, animal 2#): 47.6 µmol/L; Content of serum uric acid (serum uric acid; 6 h after administration, animal 3#): 50.4 µmol/L; Content of serum uric acid (serum uric acid; 6 h after administration, mean): 55.2 µmol/L; Change of toe volume ([4]; Example 4, 5 mg/kg subcutaneous, 9 h after MSU injection into left ankle joint cavity): 0.416 mL; Inhibition of toe volume change (%) ([4]; Example 4, 5 mg/kg subcutaneous): 17.5%; effect on increase of the toe volumes in the test rats (in words) ([4]; Example 4, 5 mg/kg): significantly inhibit
2 | CCCCCn1c(=O)n(C)c(=O)c2[nH]c(Cl)nc21 [Compound D, 8-chloro-1-methyl-3-pentyl-3,7-dihydro-1H-purine-2,6-dione] | 5.90 ± 0.42 | 43.10 | significantly increase | significantly reduce | 14.3 | 13.6 | 13.9 | 49.6 | 47.1 | 48.4 | 0.87 | significantly inhibit | 0.232 | 42.6 | –
